Common to all, as to experiment: NCI-60 cell line screen, 48 h
The test system of assay [1] is KM12 colon.
Assay [2] deals with HCT-15 colon.
In assay [3] the test system is HOP-92 NSCLC.
Assay [4] has as its system SNB-75 CNS.
In assay [5] the test system is SF-295 CNS.
Assay [6] has as its system IGROV1 ovarian.
Assay [7] deals with EKVX NSCLC.
In assay [8] the test system is SF-268 CNS.
The test system of assay [9] is HL-60(TB) leukemia.
Assay [10] has as its system CCRF-CEM leukemia.

“And” between values parts separate entries of the source, which are not always exact repeats. Identical values can stand only once.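 Exposure lasted 48 hours, with cells grown in 96-well plates and compounds tested at five concentrations. The concentration for 50% growth inhibition is given as GI50. TGI is the concentration that stops growth completely.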 Peptide text beside a SMILES is read from it. * marks the point of attachment. X34 = O=C(c1ccc(-c2ccc(Cl)cc2Cl)o1)*

Turning to `N#Cc1ccc([N+](=O)[O-])cc1NC(N)=S`, the TGI in assay [1], in assay [2], in assay [3], in assay [4], in [5] and in assay [6] was over 100 µM in each case. Further, the TGI in assay [7] and in assay [8] was over 100 µM each time.

For `CC(=O)OCC1=CC2OC(=O)C3=COC(OC4OC(CO)C(O)C(O)C4O)C1C32` (configuration not stated), the TGI in assay [1], in [9], in assay [2], in [3], in [4] and in assay [10] was over 100 µM each time. The TGI in [5], in [6], in assay [7] and in assay [8] was over 100 µM throughout.

As to `O=C1/C(=C/C=C/c2ccccc2)N=C(c2ccccc2)N1c1ccc(S(=O)(=O)Nc2nccs2)cc1`, the TGI in assay [1], in assay [9], in [2], in assay [3], in assay [4] and in assay [10] was over 100 µM throughout. Also, the TGI was over 100 µM in [5], 44.5 µM in [6], 84.7 µM in [7] and 39.8 µM in assay [8].

Turning to `O=c1oc2cc(O)ccc2c2oc3cc(O)ccc3c12`, the TGI in assay [1], in assay [9], in assay [2], in assay [3], in assay [4] and in assay [10] was over 125 µM in each case. Besides, the TGI in [5] is over 125 µM; in [6], over 125 µM; in [7], over 125 µM; in assay [8] it was over 82.5 µM.

In the case of `CC1(O)C2(c3ccccc3)CCC[N+]1(C)CC2` (configuration not stated), the TGI in assay [1], in assay [9], in [2], in [3], in assay [4] and in assay [10] was over 100 µM in each case. In addition, the TGI in [5] and in [6] was over 100 µM in each case.

For the molecule `CC(=O)OCCCCN1C(=O)CSc2ccccc21`, the TGI in assay [1], in [9], in assay [2], in assay [3], in assay [4] and in assay [10] was over 100 µM throughout. Besides, the TGI in assay [5], in assay [6] and in [7] was over 100 µM throughout.

As to `CC[C@@H]1CSC(/C=C/C2OC3OC(C)(C)OC3C3OC(C)(C)OC23)=N1` (some centres not stated), the TGI in assay [1] was 33.3 µM; in assay [9], 5.67 µM; in [2], 15.3 µM; in [3], 19.2 µM; in assay [4], 29.6 µM; in [5], 46.6 µM. For the same molecule, the figures for the TGI in [6], in assay [7] and in assay [8] were 26 µM, 25.6 µM and 18.8 µM, respectively.

As for `CC(C)CNCCc1ccccn1`, the TGI in assay [1], in assay [9], in assay [2], in [3], in assay [4] and in [10] was over 100 µM throughout. The TGI in assay [5], in assay [6], in assay [7] and in assay [8] was over 100 µM in each case.

As for `C=CCn1c(=O)c(Br)nn(CCOCP(=O)(OCC)OCC)c1=O`, the TGI in assay [1], in assay [9], in assay [2], in assay [3], in assay [4] and in assay [10] was over 100 µM throughout. The TGI in [6], in [7] and in assay [8] was over 100 µM throughout.

Consider `CN1c2c(nc(N)[nH]c2=O)NCC1CCNc1ccc(C(=O)NC(CCC(=O)O)C(=O)O)cc1` (configuration not stated), for which the TGI in assay [1] was determined as 2220 µM; in [9], 2250 µM; in assay [2], 3010 µM; in assay [3], 2900 µM; in assay [4], 2660 µM; in assay [10] it was 1000 µM. In addition, the TGI turned out to be 2260 µM in assay [5], 2470 µM in assay [6], 2720 µM in assay [7] and 2710 µM in assay [8].

Regarding `CN(C)c1ccc(C2CC(=O)CC(c3ccc(N(C)C)cc3)C23C(=O)NC(=S)NC3=O)cc1` (configuration not stated), the TGI is over 100 µM in [1]; over 100 µM in assay [9]; over 100 µM in assay [2]; over 100 µM in [3]; 31.2 µM in assay [4]; over 100 µM in assay [10]. Moreover, the TGI in [5], in assay [7] and in assay [8] was over 100 µM in each case.

Consider `COc1ccc(C(=O)c2nc3ccccc3nc2N2CCN(c3ccccc3)CC2)cc1OC`, for which the TGI in assay [1], in assay [9], in assay [2], in assay [3], in [4] and in [10] was over 100 µM throughout. Also, the TGI in assay [5], in assay [6], in assay [7] and in assay [8] was over 100 µM each time.

On to `Nc1nc(SCCNC(=O)CCc2ccc(O)c(I)c2)nc2c1ncn2C1OC(CO)C(O)C1O` (configuration not stated), for which the TGI in [1], in assay [9], in assay [2], in assay [3], in assay [4] and in assay [10] was over 100 µM in each case. Further, the TGI in [5], in assay [6], in assay [7] and in [8] was over 100 µM throughout.

With `COc1cc(NC(C)=O)ccc1C(=O)N/N=C/c1ccco1`, the TGI in assay [1], in [9], in assay [2], in [3], in assay [4] and in [10] was over 100 µM in each case. Besides, the TGI in assay [5], in [6], in [7] and in [8] was over 100 µM each time.

As to `CCOc1ccccc1Nc1ccc(N)cc1S(=O)(=O)O`, the TGI in assay [1], in assay [2], in assay [3], in [4], in [5] and in [6] was over 100 µM each time. For the same molecule, the TGI in [7] and in assay [8] was over 100 µM in each case.

With `COc1ccc(C(=O)CCN(C)C)c2ccccc12`, the TGI was over 63.7 µM in [1]; 37 µM in [9]; 48.7 µM in assay [2]; 41.9 µM in assay [3]; 61.5 µM in assay [4]; 11.8 µM in assay [10]. In addition, the TGI is over 100 µM in assay [5], 40.2 µM in [6], 55.8 µM in assay [7] and 55.4 µM in assay [8].

With `CC[C@@]1(O)C[C@H](OC2CC(N(C)C)C(OC3CC(O)C(OC4CCC(=O)C(C)O4)C(C)O3)C(C)O2)c2c(cc3c(c2O)C(=O)c2c(O)cccc2C3=O)C1C(=O)OC` (some centres not stated), the TGI in assay [2] is 1.2 µM and 3.13 µM; in [3], 0.0897 µM; in assay [10], 0.116 µM and 1.02 µM; in assay [5] it was 1.1 µM and 1.89 µM; in [7] it was 3.02 µM and 1.35 µM.

On to `CC1=C(SCCO)C(=O)c2ccccc2C1=O`, for which the TGI is 26.8 µM in assay [1]; over 100 µM in assay [9]; 25.3 µM in assay [2]; 3.72 µM in assay [3]; 30.1 µM in assay [4]; over 100 µM in assay [10]. The TGI in assay [5] was 32.8 µM; in [6] it was 27.3 µM; in assay [7] it was 27.5 µM; in assay [8], 29.9 µM.

Consider `CC(=O)OC12CC[N+]3(C)CCCCC3C1=Nc1ccccc12` (configuration not stated), for which the TGI in assay [1], in assay [9], in assay [2], in assay [3], in assay [4] and in assay [10] was over 100 µM throughout. Moreover, the TGI in assay [5], in assay [6], in [7] and in assay [8] was over 100 µM in each case.

Regarding `[C-]#[N+]C(=C\c1ccc(O)cc1)/C(=C/c1ccc(O)cc1)[N+]#[C-]`, the TGI in assay [1] is over 22.3 µM; in assay [9], over 24 µM; in assay [2] it was over 100 µM; in assay [3] it was over 100 µM; in [4], 6.83 µM; in assay [10], 6.55 µM. In addition, the TGI in assay [5] is over 100 µM; in assay [6], over 23.6 µM; in assay [7], over 100 µM; in assay [8], over 100 µM.

Regarding `O=C1CCCCN1`, the TGI in assay [1], in assay [9], in assay [2], in assay [3], in [4] and in assay [10] was over 1120 µM throughout. Besides, the TGI was over 1120 µM in [5], over 1120 µM in assay [6], over 350 µM in assay [7] and over 1120 µM in assay [8].

Regarding `COc1nc2ccc(CNc3ccc(C(=O)NC(CCC(=O)O)C(=O)O)cc3)cc2nc1OC` (configuration not stated), the TGI in assay [1], in [9], in assay [2], in assay [4], in [10] and in assay [5] was over 100 µM in each case. Also, the TGI in [6], in [7] and in [8] was over 100 µM each time.

For the molecule `CCCCC(=O)c1c(O)ccc2c(C)cc(=O)oc12`, the TGI in assay [1], in assay [9], in assay [2], in assay [3], in assay [4] and in assay [10] was over 100 µM in each case. The TGI in assay [5], in assay [6], in assay [7] and in assay [8] was over 100 µM each time.

With `COC(=O)C(CC(C)C)NC(=O)C(Cc1ccccc1)NC(=O)C1CCCN1C(=O)C(CO)NC(=O)c1ccc(-c2ccc(Cl)cc2Cl)o1` (configuration not stated) (X34-SPFL-OMe; configuration not given here), the TGI in assay [1] is over 100 µM; in assay [9] it was 69.6 µM; in assay [2] it was 72.6 µM; in [3], 63.9 µM; in assay [4], 88.8 µM; in [10] it was over 100 µM. The values for the TGI in assay [5] and in assay [8] were 46.5 µM and over 100 µM, respectively.

On to `O=S(=O)(O)c1cc(S(=O)(=O)O)c2c(N=Nc3ccc(S(=O)(=O)O)c4ccccc34)c(O)ccc2c1`, for which the TGI in assay [1], in assay [9], in assay [2], in [3], in [4] and in assay [10] was over 100 µM in each case. In addition, the TGI in assay [5], in assay [6], in assay [7] and in assay [8] was over 100 µM in each case.

On to `COc1cc2c3c(n(CCCn4cncn4)c(=O)c2cc1OC)-c1cc2c(cc1C3=O)OCO2`, for which the GI50 in assay [1] is over 100 µM; in assay [9] it was under 0.0131 µM; in [2], over 100 µM; in [3], 0.935 µM; in [4], 0.799 µM; in assay [10], under 0.01 µM. Besides, the GI50 in [5] is under 0.01 µM; in assay [6] it was 10.9 µM; in assay [7] it was over 84.1 µM; in assay [8], 99 µM. In addition, the TGI in [1] was over 100 µM; in assay [9] it was 1.16 µM; in assay [2], over 100 µM; in assay [3] it was 38.6 µM; in [4], 99.1 µM; in assay [10] it was 3.5 µM. Also, the TGI in [5], in assay [6], in assay [7] and in [8] was over 100 µM in each case.

(Values after PubChem BioAssay (NCI).)
